Literature values as cited in PubChem BioAssay AID1259409 (Chemical Carcinogenesis Research Information System (CCRIS), 2018).

System: rodent chemically induced tumor inhibition, incidence and multiplicity
Assay: CCRIS tumor inhibitor studies

## CCNC(=O)/C=C(C)/C=C/C=C(C)/C=C/c1c(C)cc(OC)c(C)c1C
Carcinogen: N,N-DIMETHYLNITROSAMINE, 62-75-9, Dose [Inhibitor]: 60 MG/KG OF DIET DAILY FOR 26 WK STARTING 2 D AFTER CARCINOGEN TREATMENT AT 6 WK OF AGE AND THEN OBSERVED UNTIL DEATH (S, Route [Inhibitor]: ORAL, Species: RAT, Strain/Sex: WISTAR/FEMALE, Target Tissue: Type of Lesion: KIDNEY: EPITHELIAL TUMOR, Dose [Carcinogen]: 40 MG/KG BW ONCE, Promoter: NONE USED
  tumour outcome (control, treated, inhibition, significance): 13/27 (48%), 21/35 (60%), -25%, not significant
Carcinogen: N,N-DIMETHYLNITROSAMINE, 62-75-9, Dose [Inhibitor]: 60 MG/KG OF DIET DAILY FOR 26 WK STARTING 2 D AFTER CARCINOGEN TREATMENT AT 6 WK OF AGE AND THEN OBSERVED UNTIL DEATH (S, Route [Inhibitor]: ORAL, Species: RAT, Strain/Sex: WISTAR/FEMALE, Target Tissue: Type of Lesion: KIDNEY: MESENCHYMAL TUMOR, Dose [Carcinogen]: 40 MG/KG BW ONCE, Promoter: NONE USED
  tumour outcome (control, treated, inhibition, significance): 22/27 (82%), 26/35 (74%), 10%, not significant
Carcinogen: N-METHYL-N-NITROSOUREA, 684-93-5, Dose [Inhibitor]: 60 MG/KG OF DIET DAILY STARTING 5 D AFTER FINAL INSTILLATION OF CARCINOGEN AND CONTINUING THROUGH END OF STUDY (STUDY DU, Route [Inhibitor]: ORAL, Species: RAT, Strain/Sex: F344/MALE, Target Tissue: Type of Lesion: COLON: INVASIVE TUBULOPAPILLARY ADENOCARCINOMA, Dose [Carcinogen]: 0.5 MG 2/WK FOR 8 WK, Promoter: NONE USED
  tumour outcome (control, treated, inhibition, significance): 33%, 19%, 42%, not significant
Carcinogen: N-METHYL-N-NITROSOUREA, 684-93-5, Dose [Inhibitor]: 60 MG/KG OF DIET DAILY STARTING 5 D AFTER FINAL INSTILLATION OF CARCINOGEN AND CONTINUING THROUGH END OF STUDY (STUDY DU, Route [Inhibitor]: ORAL, Species: RAT, Strain/Sex: F344/MALE, Target Tissue: Type of Lesion: COLON: INVASIVE TUBULOPAPILLARY ADENOCARCINOMA, Dose [Carcinogen]: 1 MG 2/WK FOR 8 WK, Promoter: NONE USED
  tumour outcome (control, treated, inhibition, significance): 80%, 85%, -6%, not significant
Carcinogen: N-METHYL-N-NITROSOUREA, 684-93-5, Dose [Inhibitor]: 60 MG/KG OF DIET DAILY STARTING 5 D AFTER FINAL INSTILLATION OF CARCINOGEN AND CONTINUING THROUGH END OF STUDY (STUDY DU, Route [Inhibitor]: ORAL, Species: RAT, Strain/Sex: F344/MALE, Target Tissue: Type of Lesion: COLON: INVASIVE TUBULOPAPILLARY ADENOCARCINOMA, Dose [Carcinogen]: 2 MG 2/WK FOR 8 WK, Promoter: NONE USED
  tumour outcome (control, treated, inhibition, significance): 95%, 100%, -5%, not significant

## CC(=O)C1CC2CC1CC2N=C=S (stereo unspecified)
Carcinogen: 7,12-DIMETHYLBENZ[A]ANTHRACENE, 57-97-6, Dose [Inhibitor]: 0, 100 UMOL/D IN 0.5 ML EMULPHOR EL-620 FOR 5 CONSECUTIVE DAYS BEGINNING AT 47 D OF AGE (STUDY DURATION: 155 D), Route [Inhibitor]: GAVAGE, Species: RAT, Strain/Sex: SPRAGUE-DAWLEY/FEMALE, Target Tissue: Type of Lesion: MAMMARY GLAND: TUMOR, Dose [Carcinogen]: 8 MG IN 1 ML SESAME OIL ONCE AT 50 D OF AGE, Promoter: NONE USED
  tumour outcome (control, treated, inhibition, significance): 17/25 (68%), 8/20 (40%), 41%, not significant

## CCCCCCCCCCCCOC(=O)c1cc(O)c(O)c(O)c1
Carcinogen: 7,12-DIMETHYLBENZ[A]ANTHRACENE, 57-97-6, Dose [Inhibitor]: 0, 10 UMOL IN 0.4 ML ACETONE 20 MIN PRIOR TO EACH PROMOTER DOSE (STUDY DURATION: 47 WK), Route [Inhibitor]: DERMAL, Species: MOUSE, Strain/Sex: CF-1/FEMALE, Target Tissue: Type of Lesion: SKIN: CARCINOMA, Dose [Carcinogen]: 100 NMOL IN 0.2 ML ACETONE ONCE
  tumour outcome (control, treated, inhibition, significance): 67%, 17%, 75%, not calculated
Carcinogen: 7,12-DIMETHYLBENZ[A]ANTHRACENE, 57-97-6, Dose [Inhibitor]: 0, 10 UMOL IN 0.4 ML ACETONE 20 MIN PRIOR TO EACH PROMOTER DOSE (STUDY DURATION: 47 WK), Route [Inhibitor]: DERMAL, Species: MOUSE, Strain/Sex: CF-1/FEMALE, Target Tissue: Type of Lesion: SKIN: PAPILLOMA, Dose [Carcinogen]: 100 NMOL IN 0.2 ML ACETONE ONCE
  tumour outcome (control, treated, inhibition, significance): 94%, 90%, 4%, not calculated

## CSCC[C@H](NC(C)=O)C(=O)O
Carcinogen: 7,12-DIMETHYLBENZ[A]ANTHRACENE, 57-97-6, Dose [Inhibitor]: 0.06 MMOL/G DIET DAILY FOR 17 WK STARTING 1 WK PRIOR TO CARCINOGEN TREATMENT AND CONTINUING THROUGH THE END OF THE STUDY, Route [Inhibitor]: ORAL, Species: RAT, Strain/Sex: SPRAGUE-DAWLEY/FEMALE, Target Tissue: Type of Lesion: MAMMARY GLAND: TUMOR, Dose [Carcinogen]: 12 MG IN 1 ML OLIVE OIL ONCE, Promoter: NONE USED
  tumour outcome (control, treated, inhibition, significance): 59%, 69%, -17%, not calculated

## CCCCC[C@H](O)/C=C/[C@@H]1[C@@H](C/C=C\CCCC(=O)O)[C@@H](O)C[C@H]1O
Carcinogen: ETHYL METHANESULFONATE, 62-50-0, Dose [Inhibitor]: 0, 1 MG/KG IN SESAME OIL 2/WK FOR 8 WK ADMINISTERED CONCOMITANTLY WITH CARCINOGEN TREATMENT (STUDY DURATION: 44 WK), Route [Inhibitor]: INTRAMUSCULAR, Species: RAT, Strain/Sex: WISTAR/FEMALE, Target Tissue: Type of Lesion: MAMMARY GLAND: CARCINOMA, Dose [Carcinogen]: 0.001 MOLAR SOLUTION IN TAP WATER FOR 12 WK, Promoter: NONE USED
  tumour outcome (control, treated, inhibition, significance): 100%, 61%, 39%, p<0.01
Carcinogen: ETHYL METHANESULFONATE, 62-50-0, Dose [Inhibitor]: 0, 1 MG/KG IN SESAME OIL 2/WK FOR 8 WK BEGINNING POST CARCINOGEN TREATMENT (STUDY DURATION: 44 WK), Route [Inhibitor]: INTRAMUSCULAR, Species: RAT, Strain/Sex: WISTAR/FEMALE, Target Tissue: Type of Lesion: MAMMARY GLAND: CARCINOMA, Dose [Carcinogen]: 0.001 MOLAR SOLUTION IN TAP WATER FOR 12 WK, Promoter: NONE USED
  tumour outcome (control, treated, inhibition, significance): 100%, 88%, 12%, not significant

## Clc1ccc(COC(Cn2ccnc2)c2ccc(Cl)cc2Cl)c(Cl)c1 (stereo unspecified)
Carcinogen: 7,12-DIMETHYLBENZ[A]ANTHRACENE, 57-97-6, Dose [Inhibitor]: 0, 1000 PPM IN DIET FOR DURATION OF STUDY BEGINNING 1 WK PRIOR TO CARCINOGEN DOSE (STUDY DURATION: 107 D), Route [Inhibitor]: ORAL, Species: RAT, Strain/Sex: SPRAGUE-DAWLEY/FEMALE, Target Tissue: Type of Lesion: MAMMARY GLAND: ADENOCARCINOMA, Dose [Carcinogen]: 12 MG ONCE, Promoter: NONE USED
  tumour outcome (control, treated, inhibition, significance): 96%, 84%, 13%, not significant
Carcinogen: 7,12-DIMETHYLBENZ[A]ANTHRACENE, 57-97-6, Dose [Inhibitor]: 0, 2000 PPM IN DIET FOR DURATION OF STUDY BEGINNING 1 WK PRIOR TO CARCINOGEN DOSE (STUDY DURATION: 107 D), Route [Inhibitor]: ORAL, Species: RAT, Strain/Sex: SPRAGUE-DAWLEY/FEMALE, Target Tissue: Type of Lesion: MAMMARY GLAND: ADENOCARCINOMA, Dose [Carcinogen]: 12 MG ONCE, Promoter: NONE USED
  tumour outcome (control, treated, inhibition, significance): 96%, 68%, 29%, not calculated

## CC(=O)Nc1nnc(S(N)(=O)=O)s1
Carcinogen: N-BUTYL-N-(4-HYDROXYBUTYL)NITROSAMINE, 3817-11-6, Dose [Inhibitor]: 0.35% DIET DAILY FOR 34 WK STARTING AFTER CARCINOGEN TREATMENT (STUDY DURATION: 38 WK), Route [Inhibitor]: ORAL, Species: RAT, Strain/Sex: F344/MALE, Target Tissue: Type of Lesion: URINARY BLADDER: PAPILLOMA, Dose [Carcinogen]: 0.01% IN DRINKING WATER FOR 4 WK, Promoter: NONE USED
  tumour outcome (control, treated, inhibition, significance): 33%, 15%, 55%, not significant

## Cn1c(=O)[nH]c(=O)c2[nH]cnc21
Carcinogen: URETHANE, 51-79-6, Dose [Inhibitor]: 0.05 UMOL/G BW GIVEN AT 6 HR INTERVALS DURING THE PERIOD OF 0 TO 36 HR AFTER CARCINOGEN TREATMENT FOLLOWED BY 5 MO OBSER, Route [Inhibitor]: INTRAPERITONEAL, Species: MOUSE, Strain/Sex: ICR/FEMALE, Target Tissue: Type of Lesion: LUNG: PAPILLARY ADENOMA, Dose [Carcinogen]: 0.1 MG/G BW ONCE, Promoter: NONE USED
  tumour outcome (control, treated, inhibition, significance): 31/59 (53%), 26/44 (59%), -11%, not significant
Carcinogen: URETHANE, 51-79-6, Dose [Inhibitor]: 0.25 UMOL/G BW 1/D DURING THE PERIOD OF 5 TO 9 D AFTER CARCINOGEN TREATMENT FOLLOWED BY OBSERVATION PERIOD UNTIL END OF, Route [Inhibitor]: INTRAPERITONEAL, Species: MOUSE, Strain/Sex: ICR/FEMALE, Target Tissue: Type of Lesion: LUNG: PAPILLARY ADENOMA, Dose [Carcinogen]: 1 MG/G BW ONCE, Promoter: NONE USED
  tumour outcome (control, treated, inhibition, significance): 49/53 (93%), 50/53 (94%), -1%, not significant
